The subject of test [1] is DU145 cells. Briefly: In vitro cell inhibition assay - DU145 cell proliferation (CellTiter-Glo). The format is cell-based. Conditions: Homo sapiens, DU-145, Du145 prostate cancer cell proliferation. The method, boiled down:
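DU145 cells were seeded at 1×10^3 per well, exposed next day to an 8-point, 5-fold compound dilution series in RPMI-640 with 10% FBS, and incubated 6 days at 37° C. Viable cells were measured by CellTiter-Glo luminescence, and IC50 was fitted from inhibition rates relative to no-inhibitor and no-cell controls.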
For orientation: In ATP-based viability assays light output follows the ATP content of the culture.

Test [2] deals with HDAC8 (Homo sapiens (Human), UniProt Q9BY41). Briefly: In vitro enzyme inhibition assay - HDAC (HDAC-Glo I/II), HDAC8. The test is classed as biochemical. To be noted: read-out: HDAC IC50 (nM) HDAC 8. An outline of the steps:
(§1)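 The compound, serially diluted 5-fold in DMSO across 8 concentrations starting from a 1 mM stock, was made up as 4× working solutions in HDAC buffer. It was then tested in the HDAC-Glo I/II system, and luminescence was recorded. IC50 values came from variable-slope four-parameter curves of inhibition rate.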

Test [3] has as its target HDAC1 (Homo sapiens (Human), UniProt Q13547). Briefly: In vitro enzyme inhibition assay - HDAC (HDAC-Glo I/II), HDAC1. The test is classed as biochemical. To be noted: read-out: HDAC IC50 (nM) HDAC 1. An outline of the steps:
as §1

The subject of test [4] is NCI-H1417 cells. Kind of test: In vitro cell inhibition assay - H1417 cell proliferation (CellTiter-Glo). The test is classed as cell-based. To be noted: Homo sapiens, NCI-H1417, H1417 small cell lung cancer cell proliferation. The method, boiled down: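 Cells exposed to 8 compound concentrations (5-fold dilutions) in BEGM with 10% FBS for 7 days at 37° C., 5% CO2. Viable cells measured by CellTiter-Glo luminescence; inhibition versus no-inhibitor and no-cell controls, IC50 fitted.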

Test [5] concerns the target LSD1 (Homo sapiens (Human), UniProt O60341). Briefly: In vitro enzyme inhibition assay - LSD1 (HTRF). The test is classed as biochemical. On the technique in general: Time-resolved FRET reads energy transfer from a long-lived donor to a nearby acceptor.
Test [6] relates to NCI-H69 cells. Kind of test: In vitro cell inhibition assay - NCI-H69 cell proliferation (CellTiter-Glo). The test is classed as cell-based. To be noted: Homo sapiens, NCI-H69, H69 small cell lung cancer cell proliferation. The method, boiled down:
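NCI-H69 cells seeded at 1×10^3 per well overnight, then given 8 compound concentrations (5-fold dilutions) in RPMI-640 with 20% FBS for 7 days at 37° C., 5% CO2. Viable cells by CellTiter-Glo luminescence; IC50 fitted from inhibition rate versus no-inhibitor and no-cell controls.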

Test [7] has as its target pan-HDAC. Briefly: In vitro enzyme inhibition assay - HDAC (HDAC-Glo I/II), pan-HDAC. The format is biochemical. The method, boiled down: as §1
Test [8] relates to NCI-H526 cells. Kind of test: In vitro cell inhibition assay - NCI-H526 cell proliferation (CellTiter-Glo). The format is cell-based. To be noted: Homo sapiens, NCI-H526, 120 h, H526 small cell lung cancer cell proliferation, 5 days. The method, boiled down:
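NCI-H526 cells plated at 1×10^3 per well overnight, then treated with 8 concentrations (5-fold dilutions) in RPMI-640 with 10% FBS for 5 days at 37° C., 5% CO2. Viable cells quantified by CellTiter-Glo luminescence; IC50 fitted from inhibition rates relative to no-inhibitor and no-cell controls.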

IC50 data for six compounds are collected here from patent US20250304549A1, “HYDROXYAMIDE DERIVATIVE AND USE THEREOF” (SICHUAN HUIYU PHARMACEUTICAL CO., LTD., priority 2022, published 2025).

Where a name gives a salt, the structure may show the parent alone.

Chain of HDAC1 (Q13547 whole entry): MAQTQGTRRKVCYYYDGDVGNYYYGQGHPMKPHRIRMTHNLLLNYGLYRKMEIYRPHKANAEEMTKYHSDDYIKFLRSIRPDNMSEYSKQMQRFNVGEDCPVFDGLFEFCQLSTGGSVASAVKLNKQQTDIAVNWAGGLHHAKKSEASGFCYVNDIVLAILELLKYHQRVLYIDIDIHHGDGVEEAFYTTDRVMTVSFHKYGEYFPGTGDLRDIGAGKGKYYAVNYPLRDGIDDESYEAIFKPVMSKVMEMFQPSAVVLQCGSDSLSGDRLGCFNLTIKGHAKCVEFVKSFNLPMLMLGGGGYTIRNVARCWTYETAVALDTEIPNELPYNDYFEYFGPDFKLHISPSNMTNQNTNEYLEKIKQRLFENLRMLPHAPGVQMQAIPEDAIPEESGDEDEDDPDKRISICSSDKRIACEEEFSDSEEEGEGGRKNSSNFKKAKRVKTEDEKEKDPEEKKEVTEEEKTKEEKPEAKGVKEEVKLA
Chain of HDAC8 (Q9BY41 whole entry): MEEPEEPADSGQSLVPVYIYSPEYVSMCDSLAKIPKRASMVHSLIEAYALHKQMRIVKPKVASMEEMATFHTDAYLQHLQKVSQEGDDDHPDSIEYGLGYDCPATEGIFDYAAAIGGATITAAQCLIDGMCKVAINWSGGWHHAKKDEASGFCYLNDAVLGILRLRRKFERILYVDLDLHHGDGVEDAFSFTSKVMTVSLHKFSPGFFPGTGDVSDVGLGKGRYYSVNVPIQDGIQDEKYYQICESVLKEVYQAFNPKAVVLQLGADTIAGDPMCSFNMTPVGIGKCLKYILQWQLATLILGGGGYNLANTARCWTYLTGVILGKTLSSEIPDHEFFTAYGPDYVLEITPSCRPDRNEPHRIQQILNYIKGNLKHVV

The term IC50 denotes the concentration needed to halve the response being measured. `COc1ccc(-c2c(OC)cc(N3CCC(N)CC3)nc2-c2ccc(C#N)c(F)c2)cc1OCCNCc1ccc(/C=C/C(=O)NO)cc1` [Example 30, (E)-3-(4-((2-(5-(6-(4-Aminopiperidin-1-yl)-2-(4-cyano-3-fluorophenyl)-4-methoxypyridin-3-yl)-2-methoxyphenoxy)ethyl)amino)methyl)phenyl)-N-hydroxyacrylamide hydrochloride]: the IC50 was 2830 nM in test [1]; 65.8 nM in test [2]; 39.9 nM in test [3]; 206 nM in test [4]; 4.25 nM in test [5]; 1500 nM in test [6]. In test [7], this compound gave a concentration for half-maximal inhibition (IC50) of 18.1 nM.

`COc1ccc(-c2cnc(N3CCC(NCc4ccc(/C=C/C(=O)NO)cc4)CC3)c(C#N)c2-c2ccc(C#N)c(F)c2)cc1F` [Example 40, (E)-3-(4-(((1-(3-Cyano-4-(4-cyano-3-fluorophenyl)-5-(3-fluoro-4-methoxyphenyl)pyridin-2-yl)piperidin-4-yl)amino)methyl)phenyl)-N-hydroxyacrylamide hydrochloride]: the IC50 in test [1] was found to be 1640 nM; in test [2] it was 392 nM; in test [3] it was 108 nM; in test [4], 65 nM; in test [5], 8.25 nM; in test [6], 194 nM. This compound also had a half-maximal inhibitory concentration (IC50) in test [7] of 54.4 nM.

In the case of `COc1ccc(-c2c(OC)cc(N3CCC(NCc4ccc(/C=C/C(=O)NO)cc4)CC3)nc2-c2ccc(C#N)c(F)c2)cc1O` [Example 54, (E)-3-(4-(((1-(6-(4-cyano-3-fluorophenyl)-5-(3-hydroxy-4-methoxyphenyl)-4-methoxypyridin-2-yl)piperidin-4-yl)amino)methyl)phenyl)-N-hydroxyacrylamide formate], the concentration for half-maximal inhibition (IC50) in test [1] stood at 1050 nM; in test [2], 125 nM; in test [3], 58.2 nM; in test [4], 0.8 nM; in test [5], 0.62 nM; in test [6], 248 nM. This compound also returned an IC50 in test [7] of 34.4 nM.

`N#Cc1ccc(-c2c(-c3ccc(/C=C/C(=O)NO)cc3)cnc(N3CCC(N)CC3)c2C#N)cc1F` [Example 63, (E)-3-(4-(6-(4-Aminopiperidin-1-yl)-5-cyano-4-(4-cyano-3-fluorophenyl)pyridin-3-yl)phenyl)-N-hydroxyacrylamide diformate]: the half-maximal inhibitory concentration (IC50) was 1800 nM in test [1]; 561 nM in test [2]; 9.28 nM in test [3]; 72.6 nM in test [4]; 8.7 nM in test [5]; 422 nM in test [6]. The midpoint of inhibition in test [7], the IC50, lay at 6.22 nM.

Regarding `COc1ccc(-c2cnc(N3CCC(NC(C)c4ccc(/C=C/C(=O)NO)cc4)CC3)c(C#N)c2-c2ccc(C#N)c(F)c2)cc1O` (stereo not drawn) [Example 210, (E)-3-(4-(1-((1-(3-Cyano-4-(4-cyano-3-fluorophenyl)-5-(3-hydroxy-4-methoxyphenyl)pyridin-2-yl)piperidin-4-yl)amino)ethyl)phenyl)-N-hydroxyacrylamide formate], the half-maximal inhibitory concentration (IC50) turned out to be 456 nM in test [2]; 4.44 nM in test [3]; 3.53 nM in test [4]; 1.13 nM in test [5]; 15.1 nM in test [6]; 5.86 nM in test [8]. In test [7], the half-maximal inhibitory concentration (IC50) is 2.5 nM.

For the compound `COc1ccc(-c2cnc(N3CCC(NCc4ccc(/C=C/C(=O)NO)cc4)CC3)c(CC#N)c2-c2ccc(C#N)c(F)c2)cc1O` [Example 233, (E)-3-(4-(((1-(4-(4-cyano-3-fluorophenyl)-3-(cyanomethyl)-5-(3-hydroxy-4-methoxyphenyl)pyridin-2-yl)piperidin-4-yl)amino)methyl)phenyl)-N-hydroxyacrylamide formate], the half-inhibitory concentration (IC50) in test [2] was 42.1 nM; in test [3] it was 0.43 nM; in test [4], 10.2 nM; in test [5], 1.76 nM; in test [6], 3.81 nM; in test [8], 8.35 nM. In test [7], this compound came in with a 50% inhibitory concentration (IC50) of 2.23 nM.
